Starred links: 1 amine or outer side, 2 acyl side, 3 side chain; linkers in the order of their positions; H or OH if unused. Positions of bridges follow the written chain, without caps; N, C: chain ends. Non-standard residues stand in square brackets, D forms with d. Residues, ends and D or L forms follow the SMILES beside them. Chains are numbered I, II in the order given. *: point of attachment. X2 = CC[C@H](C)[C@@H]([C@@H](CC(=O)N1CCC[C@H]1[C@H](OC)[C@@H](C)C(=O)N[C@H](C)[C@H](O)c1ccccc1)OC)N(C)[C@H](C(=O)NC(=O)[C@H](C(C)C)N(C)C(=O)OCc1ccc(NC(=O)[C@H](CCCNC(N)=O)NC(=O)[C@@H](NC(=O)CCCCCN2C(=O)CC(*)C2=O)C(C)C)cc1)C(C)C; Hexanoyl(6-succinimido-3yl) = O=C1CC([*:1])C(=O)N1CCCCCC(=O)[*:2]; Dolaproine = CO[C@@H]([C@@H]1CCCN1)[C@@H](C)C(=O)O; Dil = CC[C@H](C)[C@H](NC)[C@@H](CC(=O)O)OC; PABC = O=C(OCc1ccc(N[*:1])cc1)[*:2]; X1 = C[C@@H](N*)[C@@H](O)c1ccccc1; Cit = NC(=O)NCCC[C@H](N)C(=O)O; NMeV = CN[C@H](C(=O)O)C(C)C Where only a bound is given, the exact number is not on record here.

Seven compounds from ChEMBL document CHEMBL6182945, “MMAE-Based Peptide-Drug Conjugates Targeting GPC3 for Precision Chemoradiotherapy in Hepatocellular Carcinoma” (J Med Chem, 2025) can be followed below.

Common to all, as to format: functional, cell-based
One assay concerns Hep 3B2. The assay can be described thus: Antiproliferative activity against GPC3-positive human Hep3B cells assessed as cytotoxicity measured after 72 hrs by MTT assay.
A further assay relates to Huh-7. The assay can be described thus: Antiproliferative activity against GPC3-positive human Huh-7 cells assessed as cytotoxicity measured after 72 hrs by MTT assay. The conditions noted are these: Huh-7, 72 h.
The test system of a further assay is LX-2. As to the kind of experiment: Antiproliferative activity against GPC3-negative human LX-2 cells assessed as cytotoxicity measured after 72 hrs by MTT assay. To be noted: LX-2, 72 h. (In general: Tetrazolium dyes change colour on reduction, which living cells bring about.)
In another assay the test system is HeLa. The assay can be described thus: Antiproliferative activity against GPC3-negative human HeLa cells assessed as cytotoxicity measured after 72 hrs by MTT assay.

The IC50 is the concentration needed to halve the response being measured. Consider `CC[C@H](C)[C@@H]([C@@H](CC(=O)N1CCC[C@H]1[C@H](OC)[C@@H](C)C(=O)N[C@H](C)[C@H](O)c1ccccc1)OC)N(C)[C@H](C(=O)NC(=O)[C@H](C(C)C)N(C)C(=O)OCc1ccc(NC(=O)[C@H](CCCNC(N)=O)NC(=O)[C@@H](NC(=O)CCCCCN2C(=O)CC(SC[C@H](N)C(=O)N[C@H](C(=O)N[C@@H](Cc3cnc[nH]3)C(=O)N[C@H](C(=O)N[C@@H](CO)C(=O)N3CCC[C@H]3C(=O)N[C@@H](CC(N)=O)C(=O)N[C@@H](CCC(N)=O)C(=O)NCC(=O)NCC(=O)N[C@@H](CC(C)C)C(=O)N3CCC[C@H]3C(=O)N[C@@H](CO)C(=O)O)C(C)C)[C@@H](C)O)C2=O)C(C)C)cc1)C(C)C` (stereo partly drawn) (H-C(X2)THVSPNQGGLPS-OH), for which the IC50 in the assay on Hep 3B2 is more than 100 nM; with Huh-7 it was 40 nM; in the assay on LX-2, 48.9 nM; in the assay on HeLa, more than 100 nM.

For `CC[C@H](C)[C@@H]([C@@H](CC(=O)N1CCC[C@H]1[C@H](OC)[C@@H](C)C(=O)N[C@H](C)[C@@H](O)c1ccccc1)OC)N(C)C(=O)[C@@H](NC(=O)[C@H](C(C)C)N(C)C(=O)OCc1ccc(NC(=O)[C@H](CCCNC(N)=O)NC(=O)[C@@H](NC(=O)CCCCCN2C(=O)CC(SC[C@H](N)C(=O)N[C@@H](CC(=O)O)C(=O)N[C@@H](Cc3cnc[nH]3)C(=O)N[C@@H](CC(C)C)C(=O)N[C@@H](C)C(=O)N[C@@H](CO)C(=O)N[C@@H](CC(C)C)C(=O)N[C@@H](Cc3c[nH]c4ccccc34)C(=O)N[C@@H](Cc3c[nH]c4ccccc34)C(=O)NCC(=O)N[C@H](C(=O)N[C@@H](CCC(=O)O)C(=O)N[C@@H](CC(C)C)C(N)=O)[C@@H](C)O)C2=O)C(C)C)cc1)C(C)C` (stereo partly drawn) (I: H-CDHLASLWWGTEL-NH2 / II: V[Cit][PABC][NMeV]V[Dil][Dolaproine]-X1; linker I:1-II:N via Hexanoyl(6-succinimido-3yl)), the IC50 with Hep 3B2, with Huh-7, in the assay with LX-2 and with HeLa was more than 100 nM in each case.

`CC[C@H](C)[C@@H]([C@@H](CC(=O)N1CCC[C@H]1[C@H](OC)[C@@H](C)C(=O)N[C@H](C)[C@@H](O)c1ccccc1)OC)N(C)C(=O)[C@@H](NC(=O)[C@H](C(C)C)N(C)C(=O)OCc1ccc(NC(=O)[C@H](CCCNC(N)=O)NC(=O)[C@@H](NC(=O)CCCCCN2C(=O)CC(SC[C@H](N)C(=O)N[C@@H](CC(=O)O)C(=O)N[C@@H](Cc3ccc(O)cc3)C(=O)N[C@@H](CCC(=O)O)C(=O)N[C@@H](CCSC)C(=O)N[C@@H](Cc3cnc[nH]3)C(=O)N[C@@H](CC(C)C)C(=O)N[C@@H](Cc3c[nH]c4ccccc34)C(=O)N[C@@H](Cc3c[nH]c4ccccc34)C(=O)NCC(=O)N[C@H](C(=O)N[C@@H](CCC(=O)O)C(=O)N[C@@H](CC(C)C)C(N)=O)[C@@H](C)O)C2=O)C(C)C)cc1)C(C)C` (stereo partly drawn) (I: H-CDYEMHLWWGTEL-NH2 / II: V[Cit][PABC][NMeV]V[Dil][Dolaproine]-X1; linker I:1-II:N via Hexanoyl(6-succinimido-3yl)): the IC50 with Hep 3B2 is more than 100 nM; with Huh-7, 41.5 nM; in the assay on LX-2, 58.1 nM; with HeLa, more than 100 nM.

As to `CC[C@H](C)[C@@H]([C@@H](CC(=O)N1CCC[C@H]1[C@H](OC)[C@@H](C)C(=O)N[C@H](C)[C@@H](O)c1ccccc1)OC)N(C)C(=O)[C@@H](NC(=O)[C@H](C(C)C)N(C)C(=O)OCc1ccc(NC(=O)[C@H](CCCNC(N)=O)NC(=O)[C@@H](NC(=O)CCCCCN2C(=O)CC(SC[C@H](N)C(=O)N[C@@H](CCCNC(=N)N)C(=O)N[C@@H](CC(C)C)C(=O)N[C@@H](CC(N)=O)C(=O)N[C@H](C(=O)NCC(=O)NCC(=O)N[C@H](C(=O)N[C@@H](Cc3ccc(O)cc3)C(=O)N[C@@H](Cc3ccccc3)C(=O)N[C@@H](CC(C)C)C(=O)N[C@H](C(=O)N[C@H](C(=O)N[C@@H](CCCNC(=N)N)C(=O)N[C@@H](CCC(N)=O)C(N)=O)[C@@H](C)O)[C@@H](C)O)[C@@H](C)O)C(C)C)C2=O)C(C)C)cc1)C(C)C` (stereo partly drawn) (I: H-CRLNVGGTYFLTTRQ-NH2 / II: V[Cit][PABC][NMeV]V[Dil][Dolaproine]-X1; linker I:1-II:N via Hexanoyl(6-succinimido-3yl)), the IC50 came out at 81.2 nM in the assay on Hep 3B2, 67.9 nM in the assay with Huh-7, 30.8 nM with LX-2 and 70.4 nM in the assay on HeLa.

Turning to `CC[C@H](C)[C@@H]([C@@H](CC(=O)N1CCC[C@H]1[C@H](OC)[C@@H](C)C(=O)N[C@H](C)[C@@H](O)c1ccccc1)OC)N(C)C(=O)[C@@H](NC(=O)[C@H](C(C)C)N(C)C(=O)OCc1ccc(NC(=O)[C@H](CCCNC(N)=O)NC(=O)[C@@H](NC(=O)CCCCCN2C(=O)CC(SC[C@H](N)C(=O)N[C@@H](C)C(=O)N[C@@H](CC(C)C)C(=O)N[C@@H](CC(C)C)C(=O)N[C@@H](C)C(=O)N[C@@H](CC(N)=O)C(=O)N[C@@H](Cc3cnc[nH]3)C(=O)N[C@@H](CCC(=O)O)C(=O)N[C@@H](CCC(=O)O)C(=O)N[C@@H](CC(C)C)C(=O)N[C@@H](Cc3ccccc3)C(=O)N[C@@H](CCC(N)=O)C(=O)N[C@H](C(N)=O)[C@@H](C)O)C2=O)C(C)C)cc1)C(C)C` (stereo partly drawn) (I: H-CALLANHEELFQT-NH2 / II: V[Cit][PABC][NMeV]V[Dil][Dolaproine]-X1; linker I:1-II:N via Hexanoyl(6-succinimido-3yl)), the IC50 is more than 100 nM in the assay with Hep 3B2, 81.4 nM in the assay with Huh-7, more than 100 nM in the assay with LX-2 and more than 100 nM with HeLa.

With `CC[C@H](C)[C@@H]([C@@H](CC(=O)N1CCC[C@H]1[C@H](OC)[C@@H](C)C(=O)N[C@H](C)[C@@H](O)c1ccccc1)OC)N(C)C(=O)[C@@H](NC(=O)[C@@H](NC)C(C)C)C(C)C` (H-[NMeV]V[Dil][Dolaproine]-X1), the IC50 with Hep 3B2 was 8.63 nM; in the assay on Huh-7, 1.05 nM; with LX-2, 0.46 nM; in the assay on HeLa, 1.47 nM.

`CC[C@H](C)[C@@H]([C@@H](CC(=O)N1CCC[C@H]1[C@H](OC)[C@@H](C)C(=O)N[C@H](C)[C@@H](O)c1ccccc1)OC)N(C)C(=O)[C@@H](NC(=O)[C@H](C(C)C)N(C)C(=O)OCc1ccc(NC(=O)[C@H](CCCNC(N)=O)NC(=O)[C@@H](NC(=O)CCCCCN2C(=O)CC(SC[C@H](N)C(=O)N[C@@H](Cc3ccc(O)cc3)C(=O)N[C@@H](Cc3ccccc3)C(=O)N[C@@H](CC(C)C)C(=O)N[C@H](C(=O)N[C@H](C(=O)N[C@@H](CCCNC(=N)N)C(=O)N[C@@H](CCC(N)=O)C(N)=O)[C@@H](C)O)[C@@H](C)O)C2=O)C(C)C)cc1)C(C)C` (stereo partly drawn) (I: H-CYFLTTRQ-NH2 / II: V[Cit][PABC][NMeV]V[Dil][Dolaproine]-X1; linker I:1-II:N via Hexanoyl(6-succinimido-3yl)): the half-inhibitory concentration (IC50) with Hep 3B2 was more than 100 nM; in the assay on Huh-7 it was 30.9 nM; with LX-2, more than 100 nM; with HeLa, more than 100 nM.
